# Laboratory results: ChEMBL document CHEMBL1275551, “Identification of the genetic basis for clinical menadione-auxotrophic small-colony variant isolates of Staphylococcus aureus” (Antimicrob Agents Chemother, 2008)
# What was measured:
# Format in all cases: functional, organism-based
# Staphylococcus aureus [1] = test: Antibacterial activity against small-colony variant Staphylococcus aureus isolate OM299/1 harboring -1 frame shift mutation in 687 nucleotide of menB gene by Etest method
# Staphylococcus aureus [2] = test: Antibacterial activity against Staphylococcus aureus isolate OM299/1 by Etest method
# Staphylococcus aureus [3] = test: Antibacterial activity against small-colony variant Staphylococcus aureus isolate A22616/5 harboring 55-63 nucleotide deletion in menB gene by Etest method
# Staphylococcus aureus [4] = test: Antibacterial activity against Staphylococcus aureus isolate A22616/5 by Etest method
# Staphylococcus aureus [5] = test: Antibacterial activity against Staphylococcus aureus isolate OM1a by Etest method
# Staphylococcus aureus [6] = test: Antibacterial activity against small-colony variant Staphylococcus aureus isolate OM1b harboring menB G698T Gly233Val mutant gene by Etest method
# Staphylococcus aureus [7] = test: Antibacterial activity against phenotypic revertant Staphylococcus aureus OM1b:F2 harboring G698C Val233Ala compensatory mutation in menB gene by Etest method
# Staphylococcus aureus [8] = test: Antibacterial activity against wild type Staphylococcus aureus OM1b:F5 phenotypic revertant by Etest method
# Staphylococcus aureus [9] = test: Antibacterial activity against phenotypic revertant Staphylococcus aureus OM1b:F8 harboring 694-702 nucleotide deletion in menB gene by Etest method
# Staphylococcus aureus [10] = test: Antibacterial activity against phenotypic revertant Staphylococcus aureus OM1b:F9 harboring G698T/Gly233Val and compensatory A776T/Lys259Ile mutant menB gene by Etest method
sequence,measurement,setting,value
GENTAMICIN,MIC,Staphylococcus aureus [1],16 µg/mL
same,MIC,Staphylococcus aureus [2],0.32 µg/mL
same,MIC,Staphylococcus aureus [3],12 µg/mL
same,MIC,Staphylococcus aureus [4],0.19 µg/mL
same,MIC,Staphylococcus aureus [5],0.125 µg/mL
same,MIC,Staphylococcus aureus [6],8 µg/mL
same,MIC,Staphylococcus aureus [7],0.125 µg/mL
same,MIC,Staphylococcus aureus [8],0.125 µg/mL
same,MIC,Staphylococcus aureus [9],0.125 µg/mL
same,MIC,Staphylococcus aureus [10],0.125 µg/mL
